Reference: patent US6627793B2, “Low temperature-inducible wheat WCS120 gene promoter” (Université du Québec A Montréal, priority 1998, dated 2003)

Key:
[1] = tested on: WCS120 family of proteins; experiment: In vivo okadaic acid treatment of wheat shoots at low temperature, western blot densitometry of WCS120 proteins; parameters: species or system wheat (Triticum aestivum L. cv Fredrick); details: 4° C.
Description: FIGS. 6. a) to c) Effect of in vivo okadaic acid treatment on the accumulation of the cold-inducible WCS120 family of proteins. Wheat seedlings were incubated at low temperature without or with different concentrations of okadaic acid (OA), and soluble proteins were extracted and separated by SDS-PAGE. a) Immunodetection of the WCS120 protein family in the soluble extracts. Following the treatment, the proteins were analyzed by western blot using the anti-WCS120 antibody. b) SDS-PAGE gel stained with Coomassie blue showing equal protein loading. c) Densitometric quantification of the individual protein bands of 50, 66 and 200 kDa of the immunoblot shown in a. The 50 kDa protein is encoded by Wcs120 gene. Values represent averages and standard deviations of the integrated intensity of the pixels for each protein band, excluding the background, from at least three independent experiments.
Wheat shoots were cut and immediately incubated in water or in the presence of the phosphatase inhibitor okadaic acid (OA) at 10, 100 or 1000 nM. The plants were left at room temperature for 4 hours to allow translocation of the inhibitor, then transferred to 4° C. for 24 hours, and the total soluble proteins were extracted as described (Limin, A. E., supra). […] The signal intensity for individual protein bands on the X-ray films was quantified with a Personal Densitometer SI (Molecular Dynamics) using the ImageQuaNT version 4.2 software. […]
To determine the role of protein phosphatases on the expression of Wcs120 gene, wheat seedlings were incubated at 4° C. in the presence of okadaic acid (a potent and specific inhibitor of protein phosphatases PP1 and PP2A) (Smith, R. D., et al. (1996) Annu. Rev. Plant. Physiol. Plant. Mol. Biol. 47:101-125). Soluble proteins were extracted and the accumulation of the WCS120 family of proteins was analyzed by quantitative densitometry of western blots. […]

[2] = tested on: PKC-like activity in CA nuclear extracts; experiment: PKC activity in nuclear extracts with the PKC-specific substrate peptide MARCKS; assay type: biochemical, wheat
Description: FIGS. 5. a) to c) Analysis of endogenous kinases in nuclear extracts from non-acclimated (NA) and cold-acclimated (CA) wheat plants. a) In vitro phosphorylation of nuclear proteins. Equal amounts of nuclear proteins (10 μg) were incubated with [γ-^32P]ATP and separated by SDS-PAGE. The gel was dried and exposed to a X-ray film. b) Immunodetection of a PKCg homolog in nuclear and soluble extracts from non-acclimated (NA) and cold-acclimated (CA) plants. Equal amounts of proteins (10 μg) were separated by SDS-PAGE, blotted onto nitrocellulose membranes and probed with the anti-PKCg antibody. CA2 and CA7 indicate soluble extracts from 2 and 7 days cold-acclimated plants. c) PKC activity was measured in the nuclear extracts with the peptide MARCKS as the PKC-specific substrate and containing the indicated chemicals. […] Aliquotes of each reaction were separated by SDS-PAGE and visualized by autoradiography. PS, phosphatydylserine; DAG, diacylglycerol.
To determine the qualitative changes in the phosphorylation pattern following cold treatment, the nuclear extracts from both NA and CA plants (10 μg protein) were incubated for 5 to 40 min at 30° C. in binding buffer (Harter, K., supra) containing 1 mM MgCl2, 50 μCi [γ-^32P]ATP and 1 mM CaCl2. At specified intervals, reactions were stopped by adding one volume of 2× SDS-sample buffer and the proteins were separated by SDS-PAGE. Gels were dried, exposed to X-ray film and the signal intensity of individual bands was determined by quantitative densitometry. To accurately quantify the Ca^2+-dependent and Ca^2+-independent nuclear kinase activities, the incorporation of ^32P on histone III-S, casein or the PKC-specific substrate peptide MARCKS (Biomol; Blackshear, P. J. (1993) J. Biol. Chem. 268: 1501-1504) was determined as described elsewhere (Kitano, T., et al. (1986) Methods Enzymol. 124: 349-352). Histone III-S and casein are suitable substrates for phosphorylation assays, particularly when dealing with a crude mixture of uncharacterized protein kinases. […]

[3] = 1 μM okadaic acid, densitometric analysis

## C=C1[C@@H](O)[C@@H]2O[C@]3(CC[C@H](/C=C/[C@@H](C)[C@@H]4CC(C)=C[C@@]5(O[C@H](C[C@@](C)(O)C(=O)O)CC[C@H]5O)O4)O3)CC[C@H]2O[C@@H]1[C@@H](O)C[C@H](C)[C@H]1O[C@@]2(CCCCO2)CC[C@H]1C [okadaic acid]
[1]; [3]
  increase of the 50 and 66 kDa proteins with respect to plants exposed to low temperature without inhibitor: 2.2 fold
  increase of the 200 kDa protein with respect to plants exposed to low temperature without inhibitor: 9 fold
[1]; several concentrations of OA (10, 100 or 1000 nM)
  accumulation of the 50, 66 and 200 kDa WCS120 proteins at low temperature: significantly stimulated

## O=C(O)CN(CCOCCOCCN(CC(=O)O)CC(=O)O)CC(=O)O [EGTA]
[2]; 0.5 mM EGTA
  inhibition of the phosphorylation of MARCKS: only partial inhibition

## Calphostin C
[2]; 0.5 mM Calphostin C
  inhibition of MARCKS phosphorylation (32P incorporation, scintillation counting): complete inhibition
[2]; Calphostin C at 0.1 µM
  inhibition of MARCKS phosphorylation: did not significantly inhibit
